Some test systems named below: SF-268; M14; KM12; ACHN; PC-3; COLO 205; HOP-92; T47D; OVCAR-4; SNB-75; MCF7; UACC-62; U-251; SR; RXF 393; NCI-H522; SF-539; OVCAR-8; EKVX; CCRF-CEM.
Common to all, as to assay: NCI-60 cell line screen, 48 h

The source of these data is ChEMBL document CHEMBL1201862, “PubChem BioAssay data set” (2004).

The structures appear in SMILES notation.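 Values below derive from 48-hour exposures of cells grown in 96-well plates, with endpoints linearly interpolated between the two concentrations bracketing the appropriate inhibition level. GI50 is the concentration that inhibits growth by half.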 Calls of active or inactive are those of the source. Rule as the data show it: active = GI50 up to about 1.1 µM and inactive = higher. Where only a bound is given, the exact number is not on record here.

In the case of `ON(CCc1ccccn1)Cc1ccccc1`, the GI50 in the experiment on SF-268, in the experiment with M14, with KM12, in the experiment with ACHN, with PC-3 and in the experiment with COLO 205 was > 100 µM (inactive) each time. The GI50 with HOP-92, in the experiment with T47D, in the experiment on OVCAR-4, in the experiment on SNB-75, in the experiment with MCF7 and in the experiment on UACC-62 was > 100 µM (inactive) each time. For the same molecule, the GI50 with U-251, with SR, in the experiment with RXF 393, in the experiment on NCI-H522, in the experiment on SF-539 and with OVCAR-8 was > 100 µM (inactive) each time. Also, the GI50 in the experiment with EKVX is > 100 µM (inactive).

For the molecule `O=C(O[C@H](/C=C/c1ccccc1)P1(=O)N(Cc2ccccc2)[C@H]2CCCC[C@@H]2N1Cc1ccccc1)c1ccccc1`, the GI50 in the experiment on SF-268 was 4.12 µM (inactive); with M14, 4.5 µM (inactive); with KM12 it was 3.41 µM (inactive); in the experiment with ACHN it was 4.56 µM (inactive); in the experiment on PC-3 it was 3.58 µM (inactive); in the experiment on COLO 205, 1.68 µM (inactive). Also, the GI50 with CCRF-CEM was 3.48 µM (inactive); in the experiment with HOP-92, 1.99 µM (inactive); with T47D, 0.877 µM (active); in the experiment on OVCAR-4 it was 1.49 µM (inactive); in the experiment with MCF7 it was 3.51 µM (inactive); with UACC-62, 5.33 µM (inactive). Besides, the GI50 is 4.01 µM (inactive) with U-251; 3.35 µM (inactive) in the experiment on SR; 3.48 µM (inactive) in the experiment on NCI-H522; 3.72 µM (inactive) with SF-539; 3.69 µM (inactive) with OVCAR-8; 4.56 µM (inactive) in the experiment with EKVX.

For `C1CSCCSCCCSCCSCCCSCCSCCCSCCSC1`, the GI50 was > 100 µM (inactive) in the experiment on SF-268; > 100 µM (inactive) in the experiment with M14; > 100 µM (inactive) in the experiment on KM12; > 100 µM (inactive) with ACHN; 69.3 µM (inactive) in the experiment on PC-3; > 100 µM (inactive) in the experiment on COLO 205. Further, the GI50 is > 100 µM (inactive) with CCRF-CEM; > 100 µM (inactive) in the experiment with HOP-92; 57 µM (inactive) in the experiment on T47D; > 100 µM (inactive) with OVCAR-4; > 100 µM (inactive) in the experiment with MCF7; > 100 µM (inactive) in the experiment with U-251. The GI50 with SR, with RXF 393, with NCI-H522, with SF-539, in the experiment on OVCAR-8 and in the experiment on EKVX was > 100 µM (inactive) each time.

On to `COc1ccc(NC(=O)C(C#N)=C(SC)SC)cc1`, for which the GI50 with SF-268, with M14, in the experiment with ACHN, in the experiment on PC-3, in the experiment on COLO 205 and in the experiment on CCRF-CEM was > 100 µM (inactive) in each case. The GI50 is 15.8 µM (inactive) with HOP-92; > 100 µM (inactive) in the experiment with T47D; > 100 µM (inactive) in the experiment with OVCAR-4; > 100 µM (inactive) in the experiment with MCF7; > 100 µM (inactive) in the experiment with UACC-62; > 100 µM (inactive) with U-251. Besides, the GI50 was > 100 µM (inactive) in the experiment on SR; > 100 µM (inactive) in the experiment on RXF 393; 57.1 µM (inactive) in the experiment with NCI-H522; > 100 µM (inactive) with SF-539; > 100 µM (inactive) with EKVX.

`O=C(c1ccccc1)c1c(-c2ccccc2)[nH]n(-c2ccc([N+](=O)[O-])cc2)c(=O)c1=O`: the GI50 was 40.2 µM (inactive) with SF-268; > 100 µM (inactive) in the experiment on M14; 94.8 µM (inactive) in the experiment with KM12; 99.1 µM (inactive) in the experiment with ACHN; 42.9 µM (inactive) with PC-3; > 100 µM (inactive) in the experiment with COLO 205. For the same molecule, the GI50 with CCRF-CEM was 47 µM (inactive); in the experiment with HOP-92, 16.8 µM (inactive); with T47D it was 81.8 µM (inactive); with OVCAR-4 it was 25.8 µM (inactive); with MCF7, 33.7 µM (inactive); in the experiment with UACC-62, < 0.01 µM (active). Also, the GI50 in the experiment with U-251 is 5.78 µM (inactive); with SR, 35.5 µM (inactive); in the experiment with RXF 393, > 100 µM (inactive); in the experiment on NCI-H522, 23.4 µM (inactive); with SF-539 it was 28.8 µM (inactive); in the experiment with OVCAR-8, 31.1 µM (inactive). For the same molecule, the GI50 in the experiment on EKVX was 91 µM (inactive).

On to `N#CC(C#N)=C1C(C#N)=C(N)NC12OCCO2`, for which the GI50 with SF-268, with M14, in the experiment on KM12, in the experiment on ACHN, in the experiment with PC-3 and in the experiment with COLO 205 was > 100 µM (inactive) throughout. The GI50 in the experiment on CCRF-CEM, in the experiment with HOP-92, in the experiment with T47D, in the experiment on OVCAR-4, in the experiment on MCF7 and with UACC-62 was > 100 µM (inactive) each time. In addition, the GI50 with U-251, in the experiment on SR, in the experiment with RXF 393, with NCI-H522, with OVCAR-8 and with EKVX was > 100 µM (inactive) in each case.

On to `C=C(Br)CN(CC(=C)Br)C(C)=O`, for which the GI50 with SF-268 is > 100 µM (inactive); in the experiment on M14 it was > 100 µM (inactive); in the experiment with KM12 it was > 100 µM (inactive); with ACHN, > 100 µM (inactive); in the experiment on PC-3, 81.8 µM (inactive); with COLO 205 it was > 100 µM (inactive). Moreover, the GI50 in the experiment on CCRF-CEM, in the experiment with T47D, with OVCAR-4, in the experiment with SNB-75, in the experiment on MCF7 and with UACC-62 was > 100 µM (inactive) each time. The GI50 in the experiment with U-251, in the experiment with SR, in the experiment on RXF 393, with NCI-H522, with SF-539 and in the experiment with OVCAR-8 was > 100 µM (inactive) each time. Besides, the GI50 with EKVX is > 100 µM (inactive).

In the case of `CC12Nc3c(Cl)cc(Cl)cc3N1C(=O)c1ccccc12` (configuration not stated), the GI50 in the experiment with SF-268, in the experiment on KM12, in the experiment with ACHN, in the experiment with PC-3, in the experiment with COLO 205 and with CCRF-CEM was > 100 µM (inactive) throughout. In addition, the GI50 with HOP-92 was 17.9 µM (inactive); with T47D, > 100 µM (inactive); with OVCAR-4, 90.2 µM (inactive); with SNB-75, > 100 µM (inactive); in the experiment with MCF7, > 100 µM (inactive); with UACC-62, > 100 µM (inactive). Besides, the GI50 was > 100 µM (inactive) in the experiment with U-251; 63.8 µM (inactive) in the experiment on SR; 78.3 µM (inactive) in the experiment with RXF 393; 97.1 µM (inactive) in the experiment on NCI-H522; > 100 µM (inactive) in the experiment with SF-539; > 100 µM (inactive) in the experiment with OVCAR-8. In the experiment on EKVX, the GI50 is 57 µM (inactive).

In the case of `CSc1c(C#N)c(N)n(-c2ccc(C)cc2)c(=O)c1C#N`, the GI50 is > 100 µM (inactive) in the experiment with SF-268; > 100 µM (inactive) with M14; > 100 µM (inactive) with KM12; > 100 µM (inactive) in the experiment on PC-3; > 100 µM (inactive) in the experiment with COLO 205; 94.8 µM (inactive) in the experiment on CCRF-CEM. Also, the GI50 in the experiment with T47D, in the experiment with OVCAR-4, in the experiment on SNB-75, in the experiment on MCF7, with UACC-62 and in the experiment with U-251 was > 100 µM (inactive) in each case. Also, the GI50 with SR was > 100 µM (inactive); in the experiment with RXF 393 it was > 100 µM (inactive); with NCI-H522, 98.9 µM (inactive); in the experiment with SF-539, > 100 µM (inactive); with OVCAR-8, > 100 µM (inactive); in the experiment with EKVX it was > 100 µM (inactive).

For the molecule `CS/C=C\C(=O)O[C@H]1C[C@@H]2[C@@H](O)c3occ(C)c3C[C@]2(C)[C@@H](C)C1`, the GI50 in the experiment on SF-268 is 28 µM (inactive); in the experiment with M14, 20.3 µM (inactive); in the experiment on KM12 it was 91 µM (inactive); with ACHN, 24.9 µM (inactive); in the experiment with PC-3, 41.2 µM (inactive); in the experiment on COLO 205, 17.9 µM (inactive). In addition, the GI50 in the experiment with CCRF-CEM is 27.3 µM (inactive); in the experiment on HOP-92 it was 25.8 µM (inactive); in the experiment on T47D, 24.4 µM (inactive); with OVCAR-4 it was 22.2 µM (inactive); with MCF7, 31.9 µM (inactive); in the experiment on UACC-62, 17.9 µM (inactive). Besides, the GI50 in the experiment with U-251 was 2.96 µM (inactive); in the experiment with SR it was 35.1 µM (inactive); with RXF 393 it was 22.9 µM (inactive); with NCI-H522, 23.2 µM (inactive); with SF-539 it was 21.7 µM (inactive); in the experiment with OVCAR-8, 22.6 µM (inactive). The GI50 in the experiment on EKVX was 37.5 µM (inactive).

With `CC(C)[Si]1(C(C)C)OCC2OC(n3ccc(=O)[nH]c3=O)C(O)(CO)C2O[Si](C(C)C)(C(C)C)O1` (configuration not stated), the GI50 in the experiment with SF-268 was 13.8 µM (inactive); in the experiment with M14 it was 19.1 µM (inactive); in the experiment with KM12, 16.5 µM (inactive); in the experiment with ACHN, 17.1 µM (inactive); in the experiment with PC-3, 13 µM (inactive); in the experiment with COLO 205 it was 17.6 µM (inactive). Further, the GI50 in the experiment on CCRF-CEM was 12.4 µM (inactive); in the experiment with HOP-92, 10.5 µM (inactive); in the experiment on T47D, 15.1 µM (inactive); with OVCAR-4 it was 13.8 µM (inactive); in the experiment on MCF7 it was 15.1 µM (inactive); in the experiment on UACC-62, 15.8 µM (inactive). Besides, the GI50 is 15.1 µM (inactive) in the experiment on U-251; 12.9 µM (inactive) in the experiment on SR; 15.6 µM (inactive) with RXF 393; 17.7 µM (inactive) in the experiment on SF-539; 15.5 µM (inactive) with OVCAR-8; 14.2 µM (inactive) in the experiment on EKVX.
